This test relates to P. falciparum W2 (chloroquine resistant) strain. Put plainly: In vitro activity against cultured W2 strain P. falciparum. Format: cell-based, Plasmodium falciparum.

The structures appear in SMILES notation.

Regarding `COC(=O)c1ccc(Oc2ccc3c(c2)B(O)OC3)cn1` [Compound 5, Methyl 5-(1-Hydroxy-1,3-dihydrobenzo[c][1,2]oxaborol-6-yloxy)picolinate], the “fold more active than acid compound 4” value (ester 5 vs acid 4, W2 and 3D7 strains) is recorded as “about 5 fold”.
Regarding `CCN(CC)CCCC(C)Nc1ccnc2cc(Cl)ccc12` (centres unmarked) [chloroquine], the IC50 (Plasmodium falciparum, W2, 48 h, read-out: IC50 (nM) (W2)) worked out at 21 ± 6 nM.
